One experiment relates to phosphorylated elF4E. As to conditions: cell culture cells transfected with MNK2 (MNK2a or MNK2b) or MNK1; cited from earlier work.
The next experiment has as its target T1, MNK2a (Homo sapiens, UniProt Q9HBH9).
T1 construct: made in house
Briefly: MNK2a in vitro kinase assay (assay 1), ADP-Glo. Type of experiment: biochemical. As to conditions: preactivated GST-MNK2a, 20 μM ATP, read-out: MNK2 IC50. The procedure, abridged: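 Preactivated GST-MNK2a (10 nM) with eIF4E peptide (25 μM) and ATP (20 μM) in HEPES/DTT/MgCl2 buffer, 90 min at room temperature, final DMSO <3%. ADP formed read by ADP-Glo luminescence and normalised to vehicle and 20 μM reference-inhibitor controls; IC50 from dose-response curves.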
A general note: In ADP-Glo the light output rises with the ADP produced.

In a further experiment the target is MNK1a (Homo sapiens, UniProt Q9BUB5). Description: MNK1 in vitro kinase assay (assay 2), Z'-LYTE. The class given is biochemical. As to conditions: for inhibition at 1 µM: compound concentration of 1 μM; for IC50: pre-activated GST-MNK1a. The method, boiled down: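 Pre-activated GST-MNK1a (13.5-54 ng) with 2 μM Ser/Thr 07 FRET peptide in 50 mM HEPES pH 7.5, 10 mM MgCl2, 2 mM MnCl2, 1 mM EGTA, 1 mM DTT, 1% DMSO; 1 h kinase then 1 h development at room temperature. Coumarin/fluorescein emission ratio gives % phosphorylation; sigmoidal dose-response fit.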
Sequence of MNK1a (Q9BUB5 1-424 isoform Q9BUB5-2): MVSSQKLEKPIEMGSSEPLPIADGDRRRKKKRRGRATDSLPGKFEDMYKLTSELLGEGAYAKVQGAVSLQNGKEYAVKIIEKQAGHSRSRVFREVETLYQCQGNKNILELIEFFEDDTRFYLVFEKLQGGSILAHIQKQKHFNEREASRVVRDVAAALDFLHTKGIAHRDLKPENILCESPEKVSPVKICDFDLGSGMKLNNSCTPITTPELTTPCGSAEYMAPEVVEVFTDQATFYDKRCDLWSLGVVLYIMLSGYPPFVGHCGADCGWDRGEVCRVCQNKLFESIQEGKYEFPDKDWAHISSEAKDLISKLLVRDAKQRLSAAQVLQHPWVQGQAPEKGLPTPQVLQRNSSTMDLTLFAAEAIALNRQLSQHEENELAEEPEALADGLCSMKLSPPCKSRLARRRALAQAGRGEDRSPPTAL

T1 sequence (Q9HBH9 whole entry): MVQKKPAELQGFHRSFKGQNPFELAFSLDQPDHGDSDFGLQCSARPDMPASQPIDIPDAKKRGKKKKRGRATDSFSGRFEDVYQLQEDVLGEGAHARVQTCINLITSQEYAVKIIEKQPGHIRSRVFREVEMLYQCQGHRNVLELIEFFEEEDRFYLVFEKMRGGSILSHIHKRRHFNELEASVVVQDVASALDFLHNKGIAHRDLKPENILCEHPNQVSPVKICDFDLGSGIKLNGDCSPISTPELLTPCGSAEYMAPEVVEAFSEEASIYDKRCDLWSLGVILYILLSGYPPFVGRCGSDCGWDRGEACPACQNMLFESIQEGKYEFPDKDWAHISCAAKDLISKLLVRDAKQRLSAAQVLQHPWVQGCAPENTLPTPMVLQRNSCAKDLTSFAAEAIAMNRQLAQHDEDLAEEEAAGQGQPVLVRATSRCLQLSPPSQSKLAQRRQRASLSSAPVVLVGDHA

Turning to `Nc1ncnc2n[nH]c(Nc3ccc(F)cc3)c12` [CGP57380], in the experiment on phosphorylated elF4E, the “reduction of phosphorylated elF4E” value is “strong reduction”.
With `CS(C)(=O)=Nc1cc(F)c2c(Nc3ccc(F)cc3O[C@@H]3CCNC3)ncnc2c1` [Example 3.7], the IC50 at MNK2a was found to be 36 nM. For the same compound, at MNK1a, the inhibition at 1 µM worked out at 81%.
As for `CS(C)(=O)=Nc1cc(F)c2c(Nc3ccc(F)cc3O[C@@H]3CCCNC3)ncnc2c1` [Example 3.8], on MNK2a, the IC50 came out at 22 nM. On MNK1a, the inhibition at 1 µM came to 79%.
For `Cc1cc(N=S(C)(C)=O)cc2ncnc(Nc3ccc(F)cc3O[C@@H]3CCCNC3)c12` [Example 3.9] the same measures were 10 nM and 89%.
For `CO[C@H]1CC[C@H](Oc2cc(F)ccc2Nc2ncnc3cc(N=S4(=O)CCNCC4)cc(C)c23)CC1` [Example 3.10], the IC50 at MNK2a turned out to be 8 nM. Besides, on MNK1a, the inhibition at 1 µM was 88%.
The matching figures for `Cc1cc(N=S(C)(C)=O)cc2ncnc(Nc3ccc(F)cc3O[C@@H]3CCNC3)c12` [Example 3.11]: 32 nM and 78%.
`Cc1cc(N=S2(=O)CCCC2)cc2ncnc(Nc3ccc(F)cc3O[C@@H]3CCCNC3)c12` [Example 3.12]: on MNK2a, the IC50 was found to be 3 nM. Also, the inhibition at 1 µM at MNK1a is 95%.
The matching figures for `Cc1cc(N=S(C)(C)=O)cc2ncnc(Nc3ccc(F)cc3O[C@H]3CC[C@H](C#N)CC3)c12` [Example 4.4]: 4 nM and 92%.
For `CCOc1cc(N=S(C)(C)=O)cc2ncnc(Nc3ccc(F)cc3O[C@H]3CCOC3)c12` [Example 5.1] the same measures were 2 nM and 101%.
For `COc1cc(N=S(C)(C)=O)cc2ncnc(Nc3ccc(F)cc3O[C@H]3CC[C@H](OC)CC3)c12` [Example 5.3] the same measures were 6 nM and 90%.
In the case of `CCOc1cc(N=S(C)(C)=O)cc2ncnc(Nc3ccc(F)cc3O[C@H]3CC[C@H](OC)CC3)c12` [Example 5.4], the IC50 at MNK2a worked out at 15 nM. The inhibition at 1 µM against MNK1a stood at 78%.
Take `CCOc1cc(N=S(C)(C)=O)cc2ncnc(Nc3ccc(F)cc3O[C@@H]3CO[C@H]4[C@@H]3OC[C@H]4OC)c12` [Example 5.5]: the IC50 on MNK2a came out at 2 nM; against MNK1a, 14 nM.
In the case of `CO[C@@H]1CO[C@H]2[C@@H]1OC[C@H]2Oc1cc(F)ccc1Nc1ncnc2cc(N=S(C)(C)=O)cc(OCCF)c12` [Example 5.6], the 50% inhibitory concentration (IC50) came out at 2 nM on MNK2a and 25 nM on MNK1a.
The matching figures for `CO[C@@H]1CO[C@H]2[C@@H]1OC[C@H]2Oc1cc(F)ccc1Nc1ncnc2cc(N=S(C)(C)=O)cc(OCC(F)F)c12` [Example 5.7]: 2 nM and 43 nM.
Consider `CS(C)(=O)=Nc1cc(F)c2c(Nc3ccc(F)cc3O[C@@H]3CCCN(CCO)C3)ncnc2c1` [Example 6.1], for which, at MNK2a, the IC50 is 8 nM. In addition, the inhibition at 1 µM against MNK1a came to 85%.
The matching figures for `Cc1cc(N=S(C)(C)=O)cc2ncnc(Nc3ccc(F)cc3O[C@@H]3CCCN(CC(F)(F)F)C3)c12` [Example 6.6]: 2 nM and 92%.
As to `Cc1cc(N=S2(=O)CCCC2)cc2ncnc(Nc3ccc(F)cc3O[C@@H]3CCCN(CCO)C3)c12` [Example 6.7], the half-maximal inhibitory concentration (IC50) at MNK2a was 2 nM. For the same compound, the inhibition at 1 µM at MNK1a is 100%.
For `Cc1cc(N=S(C)(C)=O)cc2ncnc(Nc3ccc(F)cc3O[C@@H]3CCCN(CCO)C3)c12` [Example 6.9] the same measures were 5 nM and 95%.
Consider `Cc1cc(N=S(C)(C)=O)cc2ncnc(Nc3cccnc3O[C@@H]3CCCN(CCO)C3)c12` [Example 6.10], for which the IC50 at MNK2a was determined as 8 nM. Besides, at MNK1a, the inhibition at 1 µM was 89%.
Turning to `CS(C)(=O)=Nc1cc(F)c2c(Nc3cccnc3O[C@@H]3CCCN(CCO)C3)ncnc2c1` [Example 6.11], the IC50 on MNK2a came to 31 nM. At MNK1a, the inhibition at 1 µM is 72%.
The matching figures for `CS(C)(=O)=Nc1cc(F)c2c(Nc3ccc(F)cc3O[C@@H]3CCCN(Cc4ncon4)C3)ncnc2c1` [Example 6.12]: 12 nM and 91%.
For `CS(C)(=O)=Nc1cc(F)c2c(Nc3ccc(F)cc3O[C@@H]3CCCN(CC(F)(F)F)C3)ncnc2c1` [Example 6.13], the IC50 at MNK2a amounted to 4 nM. Also, the inhibition at 1 µM on MNK1a was found to be 80%.
For `CS(C)(=O)=Nc1cc(F)c2c(Nc3ccc(F)cc3O[C@@H]3CCN(CCO)C3)ncnc2c1` [Example 6.15] the same measures were 24 nM and 82%.
As for `CS(C)(=O)=Nc1cc(F)c2c(Nc3ccc(F)cc3O[C@@H]3CCN(CC(F)F)C3)ncnc2c1` [Example 6.16], the IC50 on MNK2a was found to be 7 nM. At MNK1a, the inhibition at 1 µM was found to be 90%.
For the compound `Cc1cc(N=S(C)(C)=O)cc2ncnc(Nc3ccc(F)cc3O[C@@H]3CCN(CCO)C3)c12` [Example 6.17], the half-inhibitory concentration (IC50) on MNK2a is 23 nM. Also, the inhibition at 1 µM against MNK1a stood at 79%.
For `Cc1cc(N=S2(=O)CCCC2)cc2ncnc(Nc3ccc(F)cc3O[C@@H]3CCN(S(C)(=O)=O)C3)c12` [Example 6.18], the IC50 at MNK2a came out at 1 nM. In addition, the inhibition at 1 µM at MNK1a came out at 98%.
For `Cc1cc(N=S(C)(C)=O)cc2ncnc(Nc3ccc(F)cc3O[C@@H]3CCCN(CCC#N)C3)c12` [Example 6.20] the same measures were 4 nM and 93%.
With `CO[C@H]1CC[C@H](Oc2cc(F)ccc2Nc2ncnc3cc(N=S4(=O)CCN(C)CC4)cc(C)c23)CC1` [Example 7.1], the IC50 on MNK2a is 5 nM. For the same compound, at MNK1a, the inhibition at 1 µM came out at 86%.
Take `CO[C@H]1CC[C@H](Oc2cc(F)ccc2Nc2ncnc3cc(N=S4(=O)CCN(C(C)=O)CC4)cc(C)c23)CC1` [Example 7.2]: at MNK2a, the IC50 came to 6 nM. Besides, the inhibition at 1 µM against MNK1a is 82%.
The matching figures for `CNC(=O)N1CCS(=O)(=Nc2cc(C)c3c(Nc4ccc(F)cc4O[C@H]4CC[C@H](OC)CC4)ncnc3c2)CC1` [Example 7.4]: 7 nM and 88%.
In the case of `CO[C@H]1CC[C@H](Oc2cc(F)ccc2Nc2ncnc3cc(N=S4(=O)CCN(C(=O)N(C)C)CC4)cc(C)c23)CC1` [Example 7.5], on MNK2a, the concentration for half-maximal inhibition (IC50) turned out to be 7 nM. The inhibition at 1 µM at MNK1a came out at 77%.
For `Cc1cc(N=S(C)(C)=O)cc2ncnc(Nc3ccc(C#N)cc3OC3CCOCC3)c12` [Example 7.6] the same measures were 6 nM and 99%.
The matching figures for `C=Cc1cc(N=S(C)(C)=O)cc2ncnc(Nc3ccc(F)cc3O[C@H]3CCOC3)c12` [Example 7.7]: 2 nM and 97%.
For `CS(C)(=O)=Nc1cc(C#N)c2c(Nc3ccc(F)cc3O[C@H]3CCOC3)ncnc2c1` [Example 7.9] the same measures were 3 nM and 96%.
On to `CSc1cc(N=S(C)(C)=O)cc2ncnc(Nc3ccc(F)cc3O[C@H]3CCOC3)c12` [Example 7.10], for which, at MNK2a, the 50% inhibitory concentration (IC50) is 2 nM. The inhibition at 1 µM against MNK1a worked out at 100%.
The matching figures for `CS(C)(=O)=Nc1cc(SCF)c2c(Nc3ccc(F)cc3O[C@H]3CCOC3)ncnc2c1` [Example 7.11]: 5 nM and 98%.
Consider `Cc1cc(N=S(C)(C)=O)cc2ncnc(Nc3ccc(F)cc3OC3CC3)c12` [Example 7.12], for which the IC50 at MNK2a was 4 nM; against MNK1a, 87 nM.
Regarding `Cc1cc(N=S(C)(C)=O)cc2ncnc(Nc3ccc(F)cc3O[C@H]3C[C@H](N(C)C)C3)c12` [Example 7.15], the half-maximal inhibitory concentration (IC50) on MNK2a was 10 nM. Further, the inhibition at 1 µM against MNK1a came out at 92%.
For `Cc1cc(N=S(C)(C)=O)cc2ncnc(Nc3ccc(F)cc3O[C@@H]3CCC[C@H]3O)c12` [Example 7.16], the figures for the IC50 on MNK2a and against MNK1a were 1 nM and 25 nM, respectively.
As to `Cc1cc(N=S(C)(C)=O)cc2ncnc(Nc3ccc(F)cc3O[C@@H]3CCCC[C@H]3F)c12` [Example 7.17], on MNK2a, the IC50 worked out at 1 nM. Further, the inhibition at 1 µM against MNK1a worked out at 96%.
Take `Cc1cc(N=S(C)(C)=O)cc2ncnc(Nc3ccc(F)cc3OC3CNOC3)c12` (stereo not drawn) [Example 7.18]: the 50% inhibitory concentration (IC50) on MNK2a amounted to 2 nM. Besides, the inhibition at 1 µM at MNK1a was determined as 93%.

The term IC50 denotes the concentration at which inhibition is half-maximal. The term inhibition denotes the change of the read-out against control, counted positive when it falls.

The values are drawn from patent US8901138B2, “Sulfoximine substituted quinazolines for pharmaceutical compositions” (Boehringer Ingelheim International GmbH, priority 2012, dated 2014).
